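Grown in 96-well plates, cells were treated for 48 hours with each compound at five concentrations. Insufficient inhibition: endpoint recorded as highest concentration tested. Here, GI50 denotes the concentration required for 50% inhibition of growth. TGI denotes the concentration required for complete inhibition of growth.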
Key:
Assay in all cases: growth of human tumour cells (NCI), 48 h
786-0 renal = test system: 786-0 renal
A498 renal = test system: A498 renal
A549 NSCLC = test system: A549 NSCLC
ACHN renal = test system: ACHN renal
BT-549 breast = test system: BT-549 breast
CAKI-1 renal = test system: CAKI-1 renal
CCRF-CEM leukemia = test system: CCRF-CEM leukemia
COLO 205 colon = test system: COLO 205 colon
DMS 114 small cell lung = test system: DMS 114 small cell lung
DMS 273 small cell lung = test system: DMS 273 small cell lung
DU-145 prostate = test system: DU-145 prostate
EKVX NSCLC = test system: EKVX NSCLC
HCC-2998 colon = test system: HCC-2998 colon
HCT-116 colon = test system: HCT-116 colon
HCT-15 colon = test system: HCT-15 colon
HL-60(TB) leukemia = test system: HL-60(TB) leukemia
HOP-62 NSCLC = test system: HOP-62 NSCLC
HOP-92 NSCLC = test system: HOP-92 NSCLC
HS 578T breast = test system: HS 578T breast
HT29 colon = test system: HT29 colon
IGROV1 ovarian = test system: IGROV1 ovarian
K-562 leukemia = test system: K-562 leukemia
KM12 colon = test system: KM12 colon
LOX IMVI melanoma = test system: LOX IMVI melanoma
LXFL 529 NSCLC = test system: LXFL 529 NSCLC
M14 melanoma = test system: M14 melanoma
M19-MEL melanoma = test system: M19-MEL melanoma
MALME-3M melanoma = test system: MALME-3M melanoma
MCF7 breast = test system: MCF7 breast
MDA-MB-231 breast = test system: MDA-MB-231 breast
MDA-MB-435 = test system: MDA-MB-435
MOLT-4 leukemia = test system: MOLT-4 leukemia
NCI-H226 lung = test system: NCI-H226 lung
NCI-H23 lung = test system: NCI-H23 lung
NCI-H460 lung = test system: NCI-H460 lung
NCI-H522 lung = test system: NCI-H522 lung
NCI/ADR-RES ovarian = test system: NCI/ADR-RES ovarian
OVCAR-3 ovarian = test system: OVCAR-3 ovarian
OVCAR-4 ovarian = test system: OVCAR-4 ovarian
OVCAR-5 ovarian = test system: OVCAR-5 ovarian
OVCAR-8 ovarian = test system: OVCAR-8 ovarian
PC-3 prostate = test system: PC-3 prostate
RPMI-8226 leukemia = test system: RPMI-8226 leukemia
RXF 393 renal = test system: RXF 393 renal
RXF-631 renal = test system: RXF-631 renal
SF-268 CNS = test system: SF-268 CNS
SF-295 CNS = test system: SF-295 CNS
SF-539 CNS = test system: SF-539 CNS
SK-MEL-2 melanoma = test system: SK-MEL-2 melanoma
SK-MEL-28 melanoma = test system: SK-MEL-28 melanoma
SK-MEL-5 melanoma = test system: SK-MEL-5 melanoma
SK-OV-3 ovarian = test system: SK-OV-3 ovarian
SN12C renal = test system: SN12C renal
SNB-19 CNS = test system: SNB-19 CNS
SNB-75 CNS = test system: SNB-75 CNS
SNB-78 CNS = test system: SNB-78 CNS
SR leukemia = test system: SR leukemia
SW-620 colon = test system: SW-620 colon
T-47D breast = test system: T-47D breast
TK-10 renal = test system: TK-10 renal
U251 CNS = test system: U251 CNS
UACC-257 melanoma = test system: UACC-257 melanoma
UACC-62 melanoma = test system: UACC-62 melanoma
UO-31 renal = test system: UO-31 renal
XF 498 CNS = test system: XF 498 CNS
DLD-1 colon = test system: DLD-1 colon
KM20L2 colon = test system: KM20L2 colon

## Nc1n[n+](=O)c2ccccc2n1O
786-0 renal
  TGI: > 100 µM
A498 renal
  GI50: 11.9 µM
  TGI: > 100 µM
A549 NSCLC
  TGI: > 100 µM
ACHN renal
  TGI: > 100 µM
BT-549 breast
  GI50: 19.3 µM
  TGI: > 100 µM
CAKI-1 renal
  TGI: > 100 µM
CCRF-CEM leukemia
  TGI: > 100 µM
COLO 205 colon
  TGI: > 100 µM
DMS 114 small cell lung
  TGI: > 100 µM
DMS 273 small cell lung
  TGI: > 100 µM
DU-145 prostate
  GI50: 69.1 µM
  TGI: > 100 µM
EKVX NSCLC
  TGI: > 100 µM
HCC-2998 colon
  GI50: 50.7 µM
  TGI: > 100 µM
HCT-116 colon
  GI50: 62.9 µM
  TGI: > 100 µM
HCT-15 colon
  TGI: > 100 µM
HL-60(TB) leukemia
  TGI: > 100 µM
HOP-62 NSCLC
  TGI: > 100 µM
HOP-92 NSCLC
  TGI: > 100 µM
HS 578T breast
  GI50: > 100 µM
  TGI: > 100 µM
HT29 colon
  TGI: > 100 µM
IGROV1 ovarian
  TGI: > 100 µM
K-562 leukemia
  TGI: > 100 µM
KM12 colon
  TGI: > 100 µM
LOX IMVI melanoma
  TGI: > 100 µM
LXFL 529 NSCLC
  TGI: > 100 µM
M14 melanoma
  TGI: > 100 µM
M19-MEL melanoma
  TGI: > 100 µM
MALME-3M melanoma
  TGI: > 100 µM
MCF7 breast
  GI50: 60.5 µM
  TGI: > 100 µM
MDA-MB-231 breast
  GI50: > 100 µM
  TGI: > 100 µM
MDA-MB-435
  GI50: > 100 µM
  TGI: > 100 µM
MOLT-4 leukemia
  TGI: > 100 µM
NCI-H226 lung
  TGI: > 100 µM
NCI-H23 lung
  GI50: 29.6 µM
  TGI: > 100 µM
NCI-H460 lung
  TGI: > 100 µM
NCI-H522 lung
  TGI: > 100 µM
NCI/ADR-RES ovarian
  GI50: 55.2 µM
  TGI: > 100 µM
OVCAR-3 ovarian
  TGI: > 100 µM
OVCAR-4 ovarian
  TGI: > 100 µM
OVCAR-5 ovarian
  TGI: > 100 µM
OVCAR-8 ovarian
  TGI: > 100 µM
PC-3 prostate
  GI50: 94.3 µM
  TGI: > 100 µM
RPMI-8226 leukemia
  TGI: > 100 µM
RXF 393 renal
  TGI: > 100 µM
RXF-631 renal
  TGI: > 100 µM
SF-268 CNS
  TGI: > 100 µM
SF-295 CNS
  TGI: > 100 µM
SF-539 CNS
  TGI: > 100 µM
SK-MEL-2 melanoma
  TGI: > 100 µM
SK-MEL-28 melanoma
  TGI: > 100 µM
SK-MEL-5 melanoma
  TGI: > 65.7 µM
SK-OV-3 ovarian
  TGI: > 100 µM
SN12C renal
  TGI: > 100 µM
SNB-19 CNS
  TGI: > 100 µM
SNB-75 CNS
  TGI: > 100 µM
SNB-78 CNS
  TGI: > 100 µM
SR leukemia
  GI50: 20.6 µM
  TGI: > 100 µM
SW-620 colon
  TGI: > 100 µM
T-47D breast
  GI50: 38.4 µM
  TGI: > 100 µM
TK-10 renal
  TGI: > 100 µM
U251 CNS
  TGI: > 100 µM
UACC-257 melanoma
  TGI: > 100 µM
UACC-62 melanoma
  TGI: > 100 µM
UO-31 renal
  TGI: > 100 µM
XF 498 CNS
  TGI: > 100 µM

## O=C(c1ccc(Cl)cc1Cl)N(/N=C/C=C/c1ccccc1)c1nnc(-c2ccccc2)c(-c2ccccc2)n1
786-0 renal
  TGI: > 100 µM
A498 renal
  TGI: > 100 µM
A549 NSCLC
  TGI: > 100 µM
ACHN renal
  TGI: > 100 µM
CCRF-CEM leukemia
  TGI: > 100 µM
COLO 205 colon
  TGI: > 100 µM
DLD-1 colon
  TGI: > 100 µM
DMS 114 small cell lung
  TGI: > 100 µM
DMS 273 small cell lung
  TGI: > 100 µM
EKVX NSCLC
  TGI: > 100 µM
HCC-2998 colon
  TGI: > 100 µM
HCT-15 colon
  TGI: > 100 µM
HL-60(TB) leukemia
  TGI: > 100 µM
HOP-62 NSCLC
  TGI: > 100 µM
HT29 colon
  TGI: > 100 µM
IGROV1 ovarian
  TGI: > 100 µM
K-562 leukemia
  TGI: > 100 µM
KM12 colon
  TGI: > 100 µM
KM20L2 colon
  TGI: > 100 µM
LOX IMVI melanoma
  TGI: > 100 µM
M19-MEL melanoma
  TGI: > 100 µM
MALME-3M melanoma
  TGI: > 100 µM
MOLT-4 leukemia
  TGI: > 100 µM
NCI-H226 lung
  TGI: > 100 µM
NCI-H23 lung
  TGI: > 100 µM
NCI-H460 lung
  TGI: > 100 µM
NCI-H522 lung
  TGI: 82.5 µM
OVCAR-3 ovarian
  TGI: > 100 µM
OVCAR-4 ovarian
  TGI: > 100 µM
OVCAR-5 ovarian
  TGI: > 100 µM
OVCAR-8 ovarian
  TGI: > 100 µM
RPMI-8226 leukemia
  TGI: > 100 µM
RXF 393 renal
  TGI: > 100 µM
RXF-631 renal
  TGI: > 100 µM
SF-268 CNS
  TGI: > 100 µM
SF-295 CNS
  TGI: > 100 µM
SF-539 CNS
  TGI: > 100 µM
SK-MEL-2 melanoma
  TGI: > 100 µM
SK-MEL-28 melanoma
  TGI: > 100 µM
SK-MEL-5 melanoma
  TGI: > 100 µM
SK-OV-3 ovarian
  TGI: > 100 µM
SN12C renal
  TGI: > 100 µM
SNB-19 CNS
  TGI: > 100 µM
SNB-75 CNS
  TGI: > 100 µM
SNB-78 CNS
  TGI: > 100 µM
SW-620 colon
  TGI: > 100 µM
TK-10 renal
  TGI: > 100 µM
U251 CNS
  TGI: > 100 µM
UACC-257 melanoma
  TGI: > 100 µM
UACC-62 melanoma
  TGI: > 100 µM
UO-31 renal
  TGI: > 100 µM
XF 498 CNS
  TGI: > 100 µM

## CC1NS(=O)(=O)N(C)C1=O (stereo not given)
A549 NSCLC
  TGI: > 100 µM
ACHN renal
  TGI: > 100 µM
CAKI-1 renal
  TGI: > 100 µM
CCRF-CEM leukemia
  TGI: > 100 µM
DLD-1 colon
  TGI: > 100 µM
DMS 114 small cell lung
  TGI: > 100 µM
DMS 273 small cell lung
  TGI: > 100 µM
HCC-2998 colon
  TGI: > 100 µM
HCT-116 colon
  TGI: > 100 µM
HCT-15 colon
  TGI: > 100 µM
HL-60(TB) leukemia
  TGI: > 100 µM
HOP-62 NSCLC
  TGI: > 100 µM
HOP-92 NSCLC
  TGI: > 100 µM
IGROV1 ovarian
  TGI: > 100 µM
K-562 leukemia
  TGI: > 100 µM
KM12 colon
  TGI: > 100 µM
LOX IMVI melanoma
  TGI: > 100 µM
LXFL 529 NSCLC
  TGI: > 100 µM
M14 melanoma
  TGI: > 100 µM
M19-MEL melanoma
  TGI: > 100 µM
MALME-3M melanoma
  TGI: > 100 µM
MOLT-4 leukemia
  TGI: > 100 µM
NCI-H226 lung
  TGI: > 100 µM
NCI-H23 lung
  TGI: > 100 µM
NCI-H522 lung
  TGI: > 100 µM
OVCAR-3 ovarian
  TGI: > 100 µM
OVCAR-4 ovarian
  TGI: > 100 µM
OVCAR-5 ovarian
  TGI: > 100 µM
OVCAR-8 ovarian
  TGI: > 100 µM
RPMI-8226 leukemia
  TGI: > 100 µM
RXF 393 renal
  TGI: > 100 µM
RXF-631 renal
  TGI: > 100 µM
SF-268 CNS
  TGI: > 100 µM
SF-295 CNS
  TGI: > 100 µM
SF-539 CNS
  TGI: > 100 µM
SK-MEL-2 melanoma
  TGI: > 100 µM
SK-MEL-28 melanoma
  TGI: > 100 µM
SK-MEL-5 melanoma
  TGI: > 100 µM
SK-OV-3 ovarian
  TGI: > 100 µM
SN12C renal
  TGI: > 100 µM
SNB-75 CNS
  TGI: > 100 µM
SNB-78 CNS
  TGI: > 100 µM
SR leukemia
  TGI: > 100 µM
SW-620 colon
  TGI: > 100 µM
TK-10 renal
  TGI: > 100 µM
U251 CNS
  TGI: > 100 µM
UACC-257 melanoma
  TGI: > 100 µM
UACC-62 melanoma
  TGI: > 100 µM
XF 498 CNS
  TGI: > 100 µM
